# Data taken from publication PMC9848300, “Discovery of novel enasidenib analogues targeting inhibition of mutant isocitrate dehydrogenase 2 as antileukaemic agents” (Journal of Enzyme Inhibition and Medicinal Chemistry, 2023).
# Where two headings read alike, the source gives them in different places.
# What was measured:
# Assay type in all cases: cell-based
# SK-MEL-5 = assay: NCI 60 antitumor screening (single dose / five doses); conditions: Homo sapiens
# SN 12C = assay: as above; conditions: Homo sapiens, SN12C, read-out: Growth inhibition percentage (GI %)
# DU-145 = assay: as above; conditions: Homo sapiens
# SF-268 = assay: NCI 60 antitumor screening (single dose); conditions: Homo sapiens; SF-268 (CNS cancer), single dose 10 μM; read-out: Growth inhibition percentage (GI %)
# Outline: (§1)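 Assessment used the first tier of the NCI 60 screen, one dose of 10 μM per compound. Triplicate experiments gave percent growth of treated cells. Inhibition was then derived as 100 − G%.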
# U251 = assay: NCI 60 antitumor screening (single dose); conditions: Homo sapiens, U-251; U251 (CNS cancer), single dose 10 μM; read-out: Growth inhibition percentage (GI %)
# Outline: as §1
# CAKI-1 = assay: NCI 60 antitumor screening (single dose); conditions: Homo sapiens
# Outline: (§2)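 Values are GI% (100 − G%) from the NCI 60-line single-dose screen, compound at 10 μM.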
# MCF7 = assay: NCI 60 antitumor screening (single dose); conditions: Homo sapiens
# Outline: as §2
# OVCAR-4 = assay: NCI 60 antitumor screening (single dose); conditions: Homo sapiens
# Outline: as §2
# HOP-62 = assay: NCI 60 antitumor screening (single dose); conditions: Homo sapiens; HOP-62 (non-small cell lung cancer), single dose 10 μM; read-out: Growth inhibition percentage (GI %)
# Outline: as §1
# PC-3 = assay: NCI 60 antitumor screening (single dose); conditions: Homo sapiens
# Outline: as §2
# OVCAR-5 = assay: NCI 60 antitumor screening (single dose); conditions: Homo sapiens
# Outline: as §1
# NCI-H522 = assay: NCI 60 antitumor screening (single dose); conditions: Homo sapiens; NCI-H522 (non-small cell lung cancer), single dose 10 μM; read-out: Growth inhibition percentage (GI %)
# Outline: as §1
# SK-OV-3 = assay: NCI 60 antitumor screening (single dose); conditions: Homo sapiens
# Outline: as §1
# OVCAR-8 = assay: NCI 60 antitumor screening (single dose); conditions: Homo sapiens
# Outline: as §2
# NCI-H322M = assay: NCI 60 antitumor screening (single dose); conditions: Homo sapiens; NCI-H322M (non-small cell lung cancer), single dose 10 μM; read-out: Growth inhibition percentage (GI %)
# Outline: as §2
# HS 578T = assay: NCI 60 antitumor screening (single dose); conditions: Homo sapiens, read-out: Growth inhibition percentage (GI %)
# Outline: as §2
# NCI-H460 = assay: NCI 60 antitumor screening (single dose); conditions: Homo sapiens; NCI-H460 (non-small cell lung cancer), single dose 10 μM; read-out: Growth inhibition percentage (GI %)
# Outline: as §1
# A549/ATCC = assay: NCI 60 antitumor screening (single dose); conditions: Homo sapiens; A549/ATCC (non-small cell lung cancer), single dose 10 μM; read-out: Growth inhibition percentage (GI %)
# Outline: as §2
# KM 12 = assay: NCI 60 antitumor screening (single dose); conditions: Homo sapiens, KM12; KM 12 (colon cancer), single dose 10 μM; read-out: Growth inhibition percentage (GI %)
# Outline: as §2
# NCI-H226 = assay: NCI 60 antitumor screening (single dose); conditions: Homo sapiens; NCI-H226 (non-small cell lung cancer), single dose 10 μM; read-out: Growth inhibition percentage (GI %)
# Outline: as §2
# M14 = assay: NCI 60 antitumor screening (single dose); conditions: Homo sapiens
# Outline: as §2
# NCI-H23 = assay: NCI 60 antitumor screening (single dose); conditions: Homo sapiens; NCI-H23 (non-small cell lung cancer), single dose 10 μM; read-out: Growth inhibition percentage (GI %)
# Outline: as §1
# OVCAR-3 = assay: NCI 60 antitumor screening (single dose); conditions: Homo sapiens
# Outline: as §2
# HL-60(TB) = assay: NCI 60 antitumor screening (single dose / five doses); conditions: Homo sapiens
# T-47D = assay: as above; conditions: Homo sapiens, T47D, read-out: Growth inhibition percentage (GI %)
# MOLT-4 = assay: as above; conditions: Homo sapiens
# SK-MEL-28 = assay: as above; conditions: Homo sapiens
# [1] = SK-MEL-5 (melanoma), single dose 10 μM, read-out: Growth inhibition percentage (GI %)
# [2] = SN 12C (renal cancer), single dose 10 μM
# [3] = DU-145 (prostate cancer), single dose 10 μM, read-out: Growth inhibition percentage (GI %)
# [4] = CAKI-1 (renal cancer), single dose 10 μM, read-out: Growth inhibition percentage (GI %)
# [5] = MCF7 (breast cancer), single dose 10 μM, read-out: Growth inhibition percentage (GI %)
# [6] = OVCAR-4 (ovarian cancer), single dose 10 μM, read-out: Growth inhibition percentage (GI %)
# [7] = PC-3 (prostate cancer), single dose 10 μM, read-out: Growth inhibition percentage (GI %)
# [8] = OVCAR-5 (ovarian cancer), single dose 10 μM, read-out: Growth inhibition percentage (GI %)
# [9] = SK-OV-3 (ovarian cancer), single dose 10 μM, read-out: Growth inhibition percentage (GI %)
# [10] = OVCAR-8 (ovarian cancer), single dose 10 μM, read-out: Growth inhibition percentage (GI %)
# [11] = HS 578T (breast cancer), single dose 10 μM
# [12] = M14 (melanoma), single dose 10 μM, read-out: Growth inhibition percentage (GI %)
# [13] = OVCAR-3 (ovarian cancer), single dose 10 μM, read-out: Growth inhibition percentage (GI %)
# [14] = HL-60(TB) (leukaemia), single dose 10 μM, read-out: Growth inhibition percentage (GI %)
# [15] = T-47D (breast cancer), single dose 10 μM
# [16] = MOLT-4 (leukaemia), single dose 10 μM, read-out: Growth inhibition percentage (GI %)
# [17] = SK-MEL-28 (melanoma), single dose 10 μM, read-out: Growth inhibition percentage (GI %)
Structure (SMILES),inhibition at 10 µM (SF-268),inhibition at 10 µM (U251),inhibition at 10 µM (HOP-62),inhibition at 10 µM (NCI-H522),inhibition at 10 µM (NCI-H322M),inhibition at 10 µM (NCI-H460),inhibition at 10 µM (A549/ATCC),inhibition at 10 µM (KM 12),inhibition at 10 µM (NCI-H226),inhibition at 10 µM (NCI-H23),inhibition at 10 µM (SK-MEL-5; [1]),inhibition at 10 µM (SN 12C; [2]),inhibition at 10 µM (DU-145; [3]),inhibition at 10 µM (CAKI-1; [4]),inhibition at 10 µM (MCF7; [5]),inhibition at 10 µM (OVCAR-4; [6]),inhibition at 10 µM (PC-3; [7]),inhibition at 10 µM (OVCAR-5; [8]),inhibition at 10 µM (SK-OV-3; [9]),inhibition at 10 µM (OVCAR-8; [10]),also measured
"O=[N+]([O-])c1cccc(/C=N/Nc2nc(N/N=C/c3cccc([N+](=O)[O-])c3)nc(N3CCOCC3)n2)c1 [compound 6f, 2-(Morpholin-4-yl)-4,6-bis[(E)-2-[(3-nitrophenyl)methylidene]hydrazin-1-yl]-1,3,5-triazine]",6.36%,17.2%,26.4%,34.8%,5.64%,17%,28.6%,15%,26.4%,27.6%,–,–,–,–,–,–,–,–,–,–,"inhibition at 10 µM (SK-MEL-5; SK-MEL-5, read-out: Growth inhibition percentage (GI %)): 36.9%; inhibition at 10 µM (SN 12C): 24.4%; inhibition at 10 µM (DU-145; DU-145, read-out: Growth inhibition percentage (GI %)): 31.1%; inhibition at 10 µM (CAKI-1; CAKI-1, read-out: Growth inhibition percentage (GI %)): 29.5%; inhibition at 10 µM (MCF7; MCF7, read-out: Growth inhibition percentage (GI %)): 34.7%; inhibition at 10 µM (OVCAR-4; OVCAR-4, read-out: Growth inhibition percentage (GI %)): 18.4%; inhibition at 10 µM (PC-3; PC-3, read-out: Growth inhibition percentage (GI %)): 37.9%; inhibition at 10 µM (OVCAR-5; OVCAR-5, read-out: Growth inhibition percentage (GI %)): -17%; inhibition at 10 µM (SK-OV-3; SK-OV-3, read-out: Growth inhibition percentage (GI %)): -29%; inhibition at 10 µM (OVCAR-8; OVCAR-8, read-out: Growth inhibition percentage (GI %)): 39.9%; inhibition at 10 µM (HS 578T; Hs-578T): 16.7%; inhibition at 10 µM (M14; M14, read-out: Growth inhibition percentage (GI %)): 14%; inhibition at 10 µM (OVCAR-3; OVCAR-3, read-out: Growth inhibition percentage (GI %)): 19%; inhibition at 10 µM (HL-60(TB); HL-60, read-out: Growth inhibition percentage (GI %)): 47.8%; inhibition at 10 µM (T-47D): 30.9%; inhibition at 10 µM (MOLT-4; MOLT-4, read-out: Growth inhibition percentage (GI %)): 52.7%; inhibition at 10 µM (SK-MEL-28; SK-MEL-28, read-out: Growth inhibition percentage (GI %)): 17.9%"
"O=C1Nc2ccc(Cl)cc2/C1=N\Nc1nc(N/N=C2/C(=O)Nc3ccc(Cl)cc32)nc(N2CCOCC2)n1 [compound 8b, (3E)-5-Chloro-3-[2–(4-{2-[(3E)-5-chloro-2-oxo-2,3-dihydro-1H-indol-3-ylidene]hydrazin-1-yl}6-(morpholin-4-yl)-1,3,5-triazin-2-yl)hydrazin-1-ylidene]-2,3-dihydro-1H-indol-2-one]",50.9%,96.2%,62.4%,94.9%,21.9%,11.8%,-1.37%,18.8%,42.7%,82.8%,53.9%,56.1%,11.6%,28%,56.9%,21.3%,43.9%,4.93%,44.5%,49.9%,inhibition at 10 µM (HS 578T; [11]): 108%; inhibition at 10 µM (M14; [12]): 22.5%; inhibition at 10 µM (OVCAR-3; [13]): 47.3%; inhibition at 10 µM (HL-60(TB); [14]): 27.8%; inhibition at 10 µM (T-47D; [15]): 70.7%; inhibition at 10 µM (MOLT-4; [16]): 37.5%; inhibition at 10 µM (SK-MEL-28; [17]): 45%
"Clc1cccc(/C=N/Nc2nc(N/N=C/c3cccc(Cl)c3Cl)nc(N3CCCCC3)n2)c1Cl [compound 7h, 2,4-Bis[(E)-2-[(2,3-Dichlorophenyl)methylidene]hydrazin-1-yl]-6-(piperidin-1-yl)-1,3,5-triazine]",13.6%,47.1%,1.81%,23.4%,10%,66.2%,44.4%,32.8%,2.51%,0.28%,0.02%,19.3%,26.6%,15.9%,28.8%,28.6%,29.9%,6.05%,-5.17%,27.1%,inhibition at 10 µM (HS 578T; [11]): 15%; inhibition at 10 µM (M14; [12]): 31.2%; inhibition at 10 µM (OVCAR-3; [13]): 91.8%; inhibition at 10 µM (HL-60(TB); [14]): -6.32%; inhibition at 10 µM (T-47D; [15]): 51.7%; inhibition at 10 µM (MOLT-4; [16]): 15.7%; inhibition at 10 µM (SK-MEL-28; [17]): 5.78%
"Fc1cccc(Cl)c1/C=N/Nc1nc(N/N=C/c2c(F)cccc2Cl)nc(N2CCOCC2)n1 [compound 6l, 2,4-Bis[(E)-2-[(2-Chloro-6-fluorophenyl)methylidene]hydrazin-1-yl]-6-(morpholin-4-yl)-1,3,5-triazine]",11.2%,11.8%,6.23%,14.4%,16.2%,23.1%,21%,18.9%,20.4%,27.2%,44.9%,15.3%,4.76%,17.5%,29%,32.8%,19.3%,-12.4%,7.59%,15.5%,inhibition at 10 µM (HS 578T; [11]): 5%; inhibition at 10 µM (M14; [12]): 27.8%; inhibition at 10 µM (OVCAR-3; [13]): 22.9%; inhibition at 10 µM (HL-60(TB); [14]): 26.1%; inhibition at 10 µM (T-47D; [15]): 29.5%; inhibition at 10 µM (MOLT-4; [16]): 18.2%; inhibition at 10 µM (SK-MEL-28; [17]): 10%
"C(=N\Nc1nc(N/N=C/c2ccc3c(c2)OCO3)nc(N2CCOCC2)n1)/c1ccc2c(c1)OCO2 [compound 6k, 2,4-Bis[(E)-2-(2H-1,3-Benzodioxol-5-ylmethylidene)hydrazin-1-yl]-6-(morpholin-4-yl)-1,3,5-triazine]",8.94%,24.1%,13.6%,12.5%,11.8%,12.2%,17.7%,17.4%,22%,17%,14%,24.1%,23.9%,21.1%,30.9%,8.16%,30.1%,-1.78%,-11.8%,26%,inhibition at 10 µM (HS 578T; [11]): 16.7%; inhibition at 10 µM (M14; [12]): 5.09%; inhibition at 10 µM (OVCAR-3; [13]): 6.73%; inhibition at 10 µM (HL-60(TB); [14]): 61.1%; inhibition at 10 µM (T-47D; [15]): 23.8%; inhibition at 10 µM (MOLT-4; [16]): 47.3%; inhibition at 10 µM (SK-MEL-28; [17]): 12.8%
